Measured values from patent US9266835B2, “Quinoline derivatives useful as CB-1 inverse agonists” (JANSSEN PHARMACEUTICA NV, priority 2014, dated 2016).
Where two headings read alike, the source gives them in different places.

What was measured:
[1] = biological target: Human CB1R (Cannabinoid receptor 1) (Homo sapiens (Human), UniProt P21554); experiment: CB-1 in vitro cAMP assay (HTRF), inverse agonism; format: cell-based; settings: mean where tested more than once
[2] = Chronic DIO Mouse, second study: plasma and brain concentrations; format: in vivo; settings: DIO mice; for concentration at 2 h: male, mouse, oral
Experimental: Male 14-20-week old diet-induced obese mice were ordered from Taconic. Mice were started on a 60% fat diet (D12492, Research Diets, New Brunswick, N.J.) at 6 weeks of age. Mice were single-housed.
(§1) Test compounds were formulated in 10% PEG400 and 10% solutol. Test compounds were administered by oral gavage (5 ml kg^−1).
The test compound was formulated in 10% PEG400 and 10% solutol. […] At the end of the experiment, the mice were euthanized and blood and tissues were collected.
In a second study, Compound #44 was tested according to the procedure as described above, with results as listed in Tables BIO-5A through 5G, below.

[3] = biological target: Human CB2R (Cannabinoid receptor 2) (Homo sapiens (Human), UniProt P34972); experiment: CB-2 in vitro cAMP assay (HTRF), inverse agonism; format: cell-based; settings: mean where tested more than once
Sequence of Human CB2R (Cannabinoid receptor 2) (P34972 whole entry): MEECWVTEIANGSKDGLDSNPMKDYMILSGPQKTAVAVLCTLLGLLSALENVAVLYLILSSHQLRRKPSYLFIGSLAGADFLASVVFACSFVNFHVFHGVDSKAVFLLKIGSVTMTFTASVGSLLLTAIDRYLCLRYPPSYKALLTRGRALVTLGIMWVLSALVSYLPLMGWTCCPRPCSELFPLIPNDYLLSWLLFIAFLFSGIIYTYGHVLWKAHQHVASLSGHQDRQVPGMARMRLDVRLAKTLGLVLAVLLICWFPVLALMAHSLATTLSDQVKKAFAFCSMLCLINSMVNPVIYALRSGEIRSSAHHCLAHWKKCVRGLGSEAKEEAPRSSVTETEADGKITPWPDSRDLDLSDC

[4] = Open field locomotor study in rats: plasma and brain concentrations 4 hrs post dosing; format: in vivo; settings: male, Sprague Dawley, rat, oral
Excerpt: Male Sprague Dawley rats were ordered from Charles River (225-250 gm upon arrival). They were fed standard chow diet (Purina 5001) and housed 2 per cage. Male C57bl/6j mice were ordered from Charles River at 22-25 g and housed 3 per cage. They were fed standard chow (Purina 5001). All animals were housed in a temperature-controlled room with 12-hour light/dark cycle. Animals were given food and water ad libitum, except as noted.
as §1
Male SD rats were weighed and transferred to the Activity Chambers with access to water. After a 2-hr acclimation period, the rats were dosed with vehicle or test compound (@ 3 and 10 mg/kg). The Activity Chamber monitoring software program was initiated and automatically recorded rat activity in each chamber for a period of 4 hours. At the end of the 4 hour monitoring period, the software was stopped and the rats were removed from the activity chambers. The rats were anesthetized and blood samples were obtained via retro-orbital puncture to determine plasma concentration of compounds. The rats were immediately euthanized with CO2 and the brains removed, washed with PBS, frozen on dry ice and stored at −80° C. for receptor occupancy (RO) analysis.
Satellite groups of 3 rats were dosed with test compound at 3 mg/kg and 10 mg/kg respectively. Four hours later, the rats were anesthetized. Blood was collected from these rats and then they were perfused with 400 ml heparinized saline through the left ventricle of the heart. The brains were removed and homogenized in PBS (4 ml/gm tissue). The samples were submitted for determination of plasma and brain compound levels.
Compound #44 was tested in n=8 animals, according to the procedure as described above, with stereotypic counts as listed in Table BIO-5A; and plasma and brain drug levels as listed in Table BIO-5B, below.

Sequence of Human CB1R (Cannabinoid receptor 1) (P21554 whole entry): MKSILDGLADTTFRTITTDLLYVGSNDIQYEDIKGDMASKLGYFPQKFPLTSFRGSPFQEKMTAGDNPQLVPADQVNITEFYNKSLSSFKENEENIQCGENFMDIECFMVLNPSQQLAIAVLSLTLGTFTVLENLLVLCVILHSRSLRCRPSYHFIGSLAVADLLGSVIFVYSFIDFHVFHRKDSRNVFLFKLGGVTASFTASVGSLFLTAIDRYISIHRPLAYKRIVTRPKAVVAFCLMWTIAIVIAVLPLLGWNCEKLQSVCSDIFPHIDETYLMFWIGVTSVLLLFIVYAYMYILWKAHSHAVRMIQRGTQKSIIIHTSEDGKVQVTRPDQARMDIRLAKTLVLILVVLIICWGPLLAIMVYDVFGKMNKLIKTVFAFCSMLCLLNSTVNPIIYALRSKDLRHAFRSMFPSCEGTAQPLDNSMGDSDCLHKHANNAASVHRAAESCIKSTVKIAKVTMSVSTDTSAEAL

EC50 [1]: 8 nM
Brain concentration (Std Dev) ([2]; 0.3 mg/kg, Day 2, 2 hours post dose): BLOQ*
Brain concentration (Std Dev) ([2]; 0.3 mg/kg, Day 23, 2 hours post dose): BLOQ**
Brain concentration (Std Dev) ([2]; 1 mg/kg, Day 2, 2 hours post dose): BLOQ*
Brain concentration (Std Dev) ([2]; 3 mg/kg, Day 2, 2 hours post dose): BLOQ*
concentration at 2 h ([2]; brain, 1 mg/kg, 1 mg/kg, Day 23, 2 hours post dose, read-out: Brain concentration (Std Dev)): 36.8 ng/g
concentration at 2 h ([2]; brain, 3 mg/kg, 3 mg/kg, Day 23, 2 hours post dose, read-out: Brain concentration (Std Dev)): 100 ng/g
concentration at 2 h ([2]; brain, 10 mg/kg, 10 mg/kg, Day 2, 2 hours post dose, read-out: Brain concentration (Std Dev)): 62.3 ng/g
concentration at 2 h ([2]; brain, 10 mg/kg, 10 mg/kg, Day 23, 2 hours post dose, read-out: Brain concentration (Std Dev)): 201 ng/g
concentration at 2 h ([2]; plasma, 0.3 mg/kg, 0.3 mg/kg, Day 2, 2 hours post dose, read-out: Plasma concentration (Std Dev)): 61.3 ng/mL
concentration at 2 h ([2]; plasma, 0.3 mg/kg, 0.3 mg/kg, Day 23, 2 hours post dose, read-out: Plasma concentration (Std Dev)): 192 ng/mL
concentration at 2 h ([2]; plasma, 1 mg/kg, 1 mg/kg, Day 2, 2 hours post dose, read-out: Plasma concentration (Std Dev)): 310 ng/mL
concentration at 2 h ([2]; plasma, 1 mg/kg, 1 mg/kg, Day 23, 2 hours post dose, read-out: Plasma concentration (Std Dev)): 515 ng/mL
concentration at 2 h ([2]; plasma, 3 mg/kg, 3 mg/kg, Day 2, 2 hours post dose, read-out: Plasma concentration (Std Dev)): 759 ng/mL
concentration at 2 h ([2]; plasma, 3 mg/kg, 3 mg/kg, Day 23, 2 hours post dose, read-out: Plasma concentration (Std Dev)): 1560 ng/mL
concentration at 2 h ([2]; plasma, 10 mg/kg, 10 mg/kg, Day 2, 2 hours post dose, read-out: Plasma concentration (Std Dev)): 2490 ng/mL
concentration at 2 h ([2]; plasma, 10 mg/kg, 10 mg/kg, Day 23, 2 hours post dose, read-out: Plasma concentration (Std Dev)): 5280 ng/mL
EC50 [3]: 5.23 µM
concentration at 4 h ([4]; brain, 3 mg/kg, read-out: Brain Mean ± Std Dev): 9.85 ng/g
concentration at 4 h ([4]; brain, 10 mg/kg, read-out: Brain Mean ± Std Dev): 22.7 ng/g
concentration at 4 h ([4]; plasma, 3 mg/kg, read-out: Plasma Mean ± Std Dev): 126 ng/mL
concentration at 4 h ([4]; plasma, 10 mg/kg, read-out: Plasma Mean ± Std Dev): 501 ng/mL
SMILES: O=c1cc(NC2CCN(S(=O)(=O)C(F)(F)F)CC2)c2cc(C(c3ccc(Cl)cc3)c3ccc(Cl)cc3)ccc2[nH]1 [Compound #44, 6-(bis(4-chlorophenyl)methyl)-4-(1-(trifluoromethylsulfonyl)piperidin-4-ylamino)quinolin-2(1H)-one]
